This note sets out measurements from paper PMC9414972, “α-Glucosidase and α-Amylase Inhibitory Potentials of Quinoline–1,3,4-oxadiazole Conjugates Bearing 1,2,3-Triazole with Antioxidant Activity, Kinetic Studies, and Computational Validation” (Pharmaceuticals, 2022).

Series [1] is described as follows: DPPH radical scavenging activity. The note with it: DPPH radical scavenging, 30 min, 25 °C. The procedure:
The DPPH assay is used conventionally to quantify a compound’s ability to trap free radicals.
The compounds were evaluated for their ability to scavenge stable DPPH radicals, using a modification of the method by Turkoglu et al..
On the technique in general: Loss of DPPH colour is used to gauge radical scavenging.

Series [2] in a line: Nitric oxide (NO) scavenging activity. The note with it: nitric oxide radical scavenging, 37 °C, 2 h. As for the experimental part: The screening of the present compound series for NO radical scavenging activity (Table 2) identified excellent NO scavengers.
The antioxidant capacity of the compounds to scavenge nitric oxide radicals was determined using a modified version of the protocol by Kurian et al.. Briefly, 250 μL of sodium nitroprusside (10 mM) prepared in sodium phosphate buffer (pH 7.4) was added to 500 μL of the compound solution (62.5–500 μM) or distilled water (control). The resulting solution was incubated at 37 °C for 2 h. Then, 250 μL of Griess reagent was added to the reaction mixture before the absorbance was measured at 546 nm. The nitric oxide scavenging activity of the compounds was calculated with the formula: Nitric oxide scavenging (%)=1−Absorbance of compound/Absorbance of control×100

Series [3] in a line: Ferric reducing antioxidant power (FRAP). Particulars: ferric reducing antioxidant power. As for the experimental part:
FRAP is a ferric (Fe^3+) to ferrous (Fe^2+) ions reduction assay that measures a compound’s electron-donating capacity, i.e., the antioxidant’s reducing power.
The mixture was incubated at 50 °C for 20 min, followed by acidification with 100 μL trichloroacetic acid (10%). After centrifugation at 3500 rpm for 10 min, 200 μL of the supernatant was transferred into another test tube containing 200 μL of distilled water and 0.8 mL of FeCl3 (0.1%). Finally, the absorbance was read at 700 nm, and the total reductive antioxidant power was calculated thus: Ferric reducing antioxidant power (%)=Absorbance of compound/Absorbance of 500µM gallic acid×100

The target in series [4] is T1, α-glucosidase (Saccharomyces cerevisiae, UniProt P38158).
T1 construct: purchased Merck
The experiment in a line: biochemical. The note with it: pNPG substrate, pH 6.8, 37 °C; read-out: IC50 α-Glucosidase. As for the experimental part: The α-glucosidase inhibitory activity was evaluated using a previous method with slight modifications.

The target of series [5] is T2, porcine pancreatic amylase (Sus scrofa, UniProt P00690).
T2 construct: purchased Merck
T2 sequence (P00690 16-511): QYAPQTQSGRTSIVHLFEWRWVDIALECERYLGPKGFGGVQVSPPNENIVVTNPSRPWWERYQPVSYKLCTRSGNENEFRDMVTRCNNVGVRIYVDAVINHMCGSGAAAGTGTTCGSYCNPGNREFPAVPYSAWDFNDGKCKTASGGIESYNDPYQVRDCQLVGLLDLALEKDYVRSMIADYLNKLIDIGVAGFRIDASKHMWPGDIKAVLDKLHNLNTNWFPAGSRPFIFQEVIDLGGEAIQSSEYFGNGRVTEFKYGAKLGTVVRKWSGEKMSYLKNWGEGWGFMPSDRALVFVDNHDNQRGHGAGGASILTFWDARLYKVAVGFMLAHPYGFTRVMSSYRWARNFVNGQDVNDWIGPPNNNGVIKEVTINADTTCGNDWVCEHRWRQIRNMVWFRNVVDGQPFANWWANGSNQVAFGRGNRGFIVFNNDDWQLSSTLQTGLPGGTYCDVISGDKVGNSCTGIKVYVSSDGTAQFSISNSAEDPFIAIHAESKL
Briefly: α-Amylase inhibitory activity (starch/DNS). The series is classed as biochemical. Particulars: porcine pancreatic amylase, starch, pH 6.9, 25 °C; read-out: IC50 α-Amylase. The procedure: α-Amylase inhibitory activity was determined according to Ibitoye et al. with slight modifications. […] The reaction in the mixture was terminated with a 1 mL dinitrosalicylate reagent before boiling for 10 min. The cooled mixture was diluted with 5 mL distilled water, and the absorbance was read at 540 nm. The inhibitory activity was calculated using the formula below: % Inhibition=1−Absorbance of compound/Absorbance of control×100

T1 sequence (P38158 whole entry): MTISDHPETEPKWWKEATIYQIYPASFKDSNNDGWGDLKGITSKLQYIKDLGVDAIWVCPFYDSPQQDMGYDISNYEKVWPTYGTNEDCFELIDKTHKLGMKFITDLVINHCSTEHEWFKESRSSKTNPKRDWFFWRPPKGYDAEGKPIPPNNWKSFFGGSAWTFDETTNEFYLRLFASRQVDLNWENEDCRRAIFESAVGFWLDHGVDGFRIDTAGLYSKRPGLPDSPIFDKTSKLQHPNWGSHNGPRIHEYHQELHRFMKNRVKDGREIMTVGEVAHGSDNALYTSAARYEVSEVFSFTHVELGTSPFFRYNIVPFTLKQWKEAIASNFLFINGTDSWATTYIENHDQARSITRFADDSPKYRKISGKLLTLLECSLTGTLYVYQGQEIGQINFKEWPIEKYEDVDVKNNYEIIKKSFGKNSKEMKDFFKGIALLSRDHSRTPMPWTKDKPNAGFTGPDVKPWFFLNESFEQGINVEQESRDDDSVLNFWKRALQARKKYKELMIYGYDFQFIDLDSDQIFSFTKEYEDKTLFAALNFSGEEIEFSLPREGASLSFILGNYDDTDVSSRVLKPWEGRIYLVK

For `Clc1ccc(Cn2cc(CSc3nnc(COc4cccc5cccnc45)o3)nn2)cc1` [12d, 2-{[(1-(4-Chlorobenzyl)-1H-1,2,3-triazol-4-yl)methyl]thio}-5-[(quinolin-8-yloxy)methyl]-1,3,4-oxadiazole], the melting point – broadly, the temperature, or range, at which the solid turns liquid – was in the range of 92 to 96 °C. In addition, half-maximal inhibition in series [1] (IC50) was put at 80.4 µM. Further, the IC50 – broadly, the concentration that gives 50% inhibition – in series [2] was more than 500 µM. In series [3], this molecule displayed a half-inhibitory concentration (IC50) of more than 500 µM. Besides, the IC50 in series [4] came to 38.1 µM. Further, in series [5], the IC50 was more than 500 µM.
Turning to `Cc1ccc(-n2cc(CSc3nnc(COc4cccc5cccnc45)o3)nn2)cc1` [12p, 2-[(Quinolin-8-yloxy)methyl]-5-{[(1-(p-tolyl)-1h-1,2,3-triazol-4-yl)methyl]thio}-1,3,4-oxadiazole], the melting point was 78 to 80 °C. Besides, it took 96 µM to reach half-maximal inhibition in series [1] (IC50). Also, in series [2], the IC50 is more than 500 µM. Further, in series [3], the IC50 is more than 500 µM. The IC50 in series [4] amounted to 44.1 µM. In addition, the IC50 in series [5] amounted to 495 µM.
Turning to `CCCCCSc1nnc(COc2cccc3cccnc23)o1` [4d, 2-(Pentylthio)-5-[(quinolin-8-yloxy)methyl]-1,3,4-oxadiazole], the melting point fell in the range of 84.6 to 90.1 °C. In series [1], this molecule returned a half-inhibitory concentration (IC50) of 82.9 µM. The molecule also yielded an IC50 in series [2] of 457 µM. This molecule showed an IC50 in series [3] of more than 500 µM. Also, in series [4], the IC50 amounted to 46.7 µM. The half-maximal inhibitory concentration (IC50) in series [5] is more than 500 µM.
Regarding `Cc1cccc(C)c1-n1cc(CSc2nnc(COc3cccc4cccnc34)o2)nn1` [12t, 2-{[(1-(2,6-Dimethylphenyl)-1H-1,2,3-triazol-4-yl)methyl]thio}-5-[(quinolin-8-yloxy)methyl]-1,3,4-oxadiazole], the melting point lay within 110 to 116 °C. For the same molecule, the midpoint of inhibition in series [1], the IC50, lay at 90 µM. For the same molecule, the IC50 in series [2] was more than 500 µM. The molecule also yielded an IC50 in series [3] of more than 500 µM. Also, the IC50 in series [4] stood at 44.1 µM. Moreover, the IC50 in series [5] was more than 500 µM.
In turn, `O=[N+]([O-])c1ccc(-n2cc(CSc3nnc(COc4cccc5cccnc45)o3)nn2)cc1` [12o, 2-{[(1-(4-Nitrophenyl)-1H-1,2,3-triazol-4-yl)methyl]thio}-5-[(quinolin-8-yloxy)methyl]-1,3,4-oxadiazole] came in with a melting point of 150 to 156 °C. In series [1], this molecule gave an IC50 of 88.9 µM. The same molecule registered a 50% inhibitory concentration (IC50) in series [2] of more than 500 µM. This molecule also returned an IC50 in series [3] of more than 500 µM. For the same molecule, in series [4], the IC50 was found to be 38.3 µM. Moreover, the concentration for half-maximal inhibition (IC50) in series [5] was more than 500 µM.
For `Fc1ccc(CSc2nnc(COc3cccc4cccnc34)o2)c(F)c1` [4r, 2-[(2,4-Difluorobenzyl)thio]-5-[(quinolin-8-yloxy)methyl]-1,3,4-oxadiazole], the melting point was in the range of 98.7 to 105.2 °C. In series [1], this molecule displayed an IC50 of 64.5 µM. This molecule also returned an IC50 in series [2] of more than 500 µM. Further, in series [3], the concentration for half-maximal inhibition (IC50) is more than 500 µM. Besides, the half-maximal inhibitory concentration (IC50) in series [4] turned out to be 28.2 µM. Besides, the concentration for half-maximal inhibition (IC50) in series [5] was more than 500 µM.
Consider `Brc1ccc(Cn2cc(CSc3nnc(COc4cccc5cccnc45)o3)nn2)cc1` [12f, 2-{[(1-(4-Bromobenzyl)-1H-1,2,3-triazol-4-yl)methyl]thio}-5-[(quinolin-8-yloxy)methyl]-1,3,4-oxadiazole], for which the melting point is 78 to 82 °C. In addition, the IC50 in series [1] was 91.8 µM. Further, half-maximal inhibition in series [2] (IC50) required 482 µM. Also, in series [3], the 50% inhibitory concentration (IC50) is more than 500 µM. In addition, in series [4], the 50% inhibitory concentration (IC50) is 56.4 µM. Besides, in series [5], the IC50 was more than 500 µM.
As for `Fc1ccc(CSc2nnc(COc3cccc4cccnc34)o2)cc1F` [4s, 2-[(3,4-Difluorobenzyl)thio]-5-[(quinolin-8-yloxy)methyl]-1,3,4-oxadiazole], the melting point was 98.8 to 101.2 °C. Besides, in series [1], the IC50 turned out to be 87.2 µM. In addition, the half-inhibitory concentration (IC50) in series [2] was more than 500 µM. The 50% inhibitory concentration (IC50) in series [3] is more than 500 µM. Moreover, the 50% inhibitory concentration (IC50) in series [4] turned out to be 35.4 µM. In series [5], the half-inhibitory concentration (IC50) was more than 500 µM.
Molecule `COc1ccc(-n2cc(CSc3nnc(COc4cccc5cccnc45)o3)nn2)cc1` [12q, 2-{[(1-(4-Methoxyphenyl)-1H-1,2,3-triazol-4-yl)methyl]thio}-5-[(quinolin-8-yloxy)methyl]-1,3,4-oxadiazole] showed a melting point of 122 to 128 °C. Moreover, it took 98.5 µM to reach half-maximal inhibition in series [1] (IC50). Moreover, the 50% inhibitory concentration (IC50) in series [2] was more than 500 µM. For the same molecule, the 50% inhibitory concentration (IC50) in series [3] is more than 500 µM. Further, in series [4], the IC50 amounted to 62.1 µM. In addition, the IC50 in series [5] is more than 500 µM.
With `CCSc1nnc(COc2cccc3cccnc23)o1` [4a, 2-(Ethylthio)-5-[(quinolin-8-yloxy)methyl]-1,3,4-oxadiazole], the melting point is 80.7 to 83.1 °C. The molecule also registered an IC50 in series [1] of 70.9 µM. Moreover, in series [2], the IC50 was determined as 2.67 µM. In series [3], the IC50 was more than 500 µM. Further, the IC50 in series [4] came out at 41.6 µM. In series [5], the 50% inhibitory concentration (IC50) was more than 500 µM.
In turn, `Brc1ccc(-n2cc(CSc3nnc(COc4cccc5cccnc45)o3)nn2)cc1` [12n, 2-{[(1-(4-Bromophenyl)-1H-1,2,3-triazol-4-yl)methyl]thio}-5-[(quinolin-8-yloxy)methyl]-1,3,4-oxadiazole] displayed a melting point of 126 to 132 °C. In series [1], this molecule came in with an IC50 of 92.2 µM. In series [2], this molecule yielded a concentration for half-maximal inhibition (IC50) of more than 500 µM. Further, in series [3], the concentration for half-maximal inhibition (IC50) is more than 500 µM. The IC50 in series [4] amounted to 35.2 µM. Moreover, the IC50 in series [5] was more than 500 µM.
In turn, `Clc1cccc(Cn2cc(CSc3nnc(COc4cccc5cccnc45)o3)nn2)c1` [12h, 2-{[(1-(3-Chlorobenzyl)-1H-1,2,3-triazol-4-yl)methyl]thio}-5-[(quinolin-8-yloxy)methyl]-1,3,4-oxadiazole] displayed a melting point of 78 to 84 °C. Moreover, the half-maximal inhibitory concentration (IC50) in series [1] stood at 90.7 µM. In series [2], this molecule yielded an IC50 of more than 500 µM. The concentration for half-maximal inhibition (IC50) in series [3] was more than 500 µM. For the same molecule, the IC50 in series [4] is 63.6 µM. Also, the IC50 in series [5] was more than 500 µM.
`CCCCSc1nnc(COc2cccc3cccnc23)o1` [4c, 2-(Butylthio)-5-[(quinolin-8-yloxy)methyl]-1,3,4-oxadiazole]: the melting point was in the range of 88.3 to 93.5 °C. In series [1], this molecule displayed a half-maximal inhibitory concentration (IC50) of 79 µM. Further, the 50% inhibitory concentration (IC50) in series [2] is more than 500 µM. In series [3], this molecule had a half-maximal inhibitory concentration (IC50) of more than 500 µM. The IC50 in series [4] was 41.4 µM. For the same molecule, the 50% inhibitory concentration (IC50) in series [5] was more than 500 µM.
As to `c1ccc(Cn2cc(CSc3nnc(COc4cccc5cccnc45)o3)nn2)cc1` [12c, 2-{[(1-Benzyl-1H-1,2,3-triazol-4-yl)methyl]thio}-5-[(quinolin-8-yloxy)methyl]-1,3,4-oxadiazole], the melting point fell in the range of 68 to 71 °C. In series [1], this molecule had an IC50 of 80.2 µM. Also, the IC50 in series [2] is more than 500 µM. The IC50 in series [3] is more than 500 µM. In series [4], the IC50 is 46.9 µM. The IC50 in series [5] is more than 500 µM.
`O=[N+]([O-])c1ccc(Cn2cc(CSc3nnc(COc4cccc5cccnc45)o3)nn2)cc1` [12g, 2-{[(1-(4-Nitrobenzyl)-1H-1,2,3-triazol-4-yl)methyl]thio}-5-[(quinolin-8-yloxy)methyl]-1,3,4-oxadiazole] came in with a melting point of 100 to 106 °C. For the same molecule, the IC50 in series [1] amounted to 81.9 µM. The molecule also had an IC50 in series [2] of 3.01 µM. The molecule also displayed a 50% inhibitory concentration (IC50) in series [3] of more than 500 µM. Besides, the half-inhibitory concentration (IC50) in series [4] was 46.5 µM. In series [5], the 50% inhibitory concentration (IC50) is more than 500 µM.
For `Fc1ccc(Cn2cc(CSc3nnc(COc4cccc5cccnc45)o3)nn2)cc1` [12e, 2-{[(1-(4-Fluorobenzyl)-1H-1,2,3-triazol-4-yl)methyl]thio}-5-[(quinolin-8-yloxy)methyl]-1,3,4-oxadiazole], the melting point was in the range of 96 to 101 °C. Moreover, the IC50 in series [1] was 92.8 µM. The molecule further showed a concentration for half-maximal inhibition (IC50) in series [2] of more than 500 µM. Besides, the IC50 in series [3] was more than 500 µM. Besides, the IC50 in series [4] came to 39.3 µM. In addition, the IC50 in series [5] is more than 500 µM.
